Measured values reported in publication PMC4717870, “Evaluation of fluoropyruvate as nucleophile in reactions catalysed by N-acetyl neuraminic acid lyase variants: scope, limitations and stereoselectivity” (Organic & Biomolecular Chemistry, 2015).

Target: T1, S. aureus NAL (Staphylococcus aureus, UniProt Q2G160)
T1 construct: gene nanA; crystal structure
Assay: X-ray crystal structure of the complex
Assay type: binding
Details: covalent; Z-configured enamine observed in the active site

T1 sequence (Q2G160 whole entry): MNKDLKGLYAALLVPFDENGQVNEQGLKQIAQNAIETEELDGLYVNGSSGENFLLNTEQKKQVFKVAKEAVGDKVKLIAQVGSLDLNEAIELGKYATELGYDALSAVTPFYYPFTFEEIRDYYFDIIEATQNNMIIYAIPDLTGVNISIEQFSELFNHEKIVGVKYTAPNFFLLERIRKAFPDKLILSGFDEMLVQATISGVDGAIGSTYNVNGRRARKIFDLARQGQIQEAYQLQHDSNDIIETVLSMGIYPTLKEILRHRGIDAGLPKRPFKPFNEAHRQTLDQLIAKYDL

Compound: O=C(O)C(=O)CF [fluoropyruvate]
- X-ray crystal structure of the complex: the crystal structure of S. aureus NAL was determined in complex with fluoropyruvate
